From patent US20220282304A1, “SAME-SAMPLE ANTIBIOTIC SUSCEPTIBILITY TEST AND RELATED COMPOSITIONS, METHODS AND SYSTEMS” (CALIFORNIA INSTITUTE OF TECHNOLOGY, priority 2021, published 2022)

Key:
[1] = tested on: Escherichia coli isolate B; assay: Same-sample filtration AST, replicate treated and concurrent reference conditions (Example 3), isolate B; type: cell-based; details: 1 μg/mL ETP, 60 minutes 37° C.
Experimental: Isolate A was susceptible to ertapenem, while isolate B was resistant. The inoculum was small enough that no detectable difference in the sample's optical density at 600 mm (OD600) was detectable before and after inoculation by an Ultrospec 10 spectrophotometer with an analytical sensitivity of 0.01 absorbance units. After an incubation at 37° C., the media became turbid with an OD600 of 0.5 absorbance units after about 2 hours of incubation.
To begin the AST protocol, 23.75 μL of the above 8 bacteria batch culture dilutions was twice added to and mixed with 1.25 μL of water containing either 20 μg/mL or 0 μg/mL of dissolved ertapenem (ETP) antibiotic. As a result, […] at 1 μg/mL were created, and 8 untreated reference conditions were created (see Table 2 below). The […] were incubated at 37° C. for 60 minutes.
After 60 minutes of incubation, the entire volume of each antibiotic exposure was transferred to an individual cellulose acetate filter unit with a 0.2 μm pore size. […]
50 μL of fresh MHB media was spun through the filters after the first centrifugation (above) to wash away residual extracellular nucleic acids present in the fluid wetting the filters. […] In this experiment, the wash fluid was collected and analyzed to learn more about the protocol, but this washing step is not necessary for determining susceptibility of the isolate. […]

Escherichia coli isolate = assay: Same-sample AST, bulk: filtration, RT-ddPCR of 23S rRNA, percent extracellular (Example 1); type: cell-based; details: 1.0 μg/mL ETP, 37° C. 60 minutes; lower bound of 95% Poisson CI of percent extracellular vs threshold (control mean + 2 SD); three replicates
Experimental: The inoculum was small enough that no detectable difference in the sample's optical density at 600 mm (OD600) was detectable by a spectrophotometer with a sensitivity of 0.01 absorbance units. After an incubation at 37° C., the media became turbid with an OD600 of 0.26 absorbance units after 2 hours of incubation thus providing a bacteria batch culture.
To begin the AST protocol, 10 μL of the above bacteria batch culture was added to and mixed with 15 μL of Mueller-Hinton Broth (MHB) growth media containing 1.67 μg/mL of dissolved ertapenem (ETP) antibiotic to create a test condition antibiotic exposure with a final ETP concentration of 1.0 μg/mL.
In parallel, 10 μL of the batch culture was added to and mixed with 15 μL of Mueller-Hinton Broth (MHB) growth media containing no ETP to create a control condition antibiotic exposure corresponding to the 1 μg/mL test condition. The two antibiotic exposures were incubated at 37° C. for 60 minutes.
The entire volume of each antibiotic exposure was transferred to an individual cellulose acetate filter with a 0.2 μm pore size. Fluid that passes through the filter, called the “filtrate”, was collected in a clean microcentrifuge tube. The antibiotic exposures were centrifuged at 2200 relative centrifugal force to speed the passage of the antibiotic exposure through the filter and into the collecting vessel. […]

## C[C@@H](O)[C@H]1C(=O)N2C(C(=O)O)=C(S[C@@H]3CN[C@H](C(=O)Nc4cccc(C(=O)O)c4)C3)[C@H](C)[C@H]12 [ETP, ertapenem]
[1]; alternative analysis
  susceptibility call (threshold: reference mean + 2 SD of fraction extracellular): resistant
[1]; ddPCR 23S rRNA
  susceptibility call (t-test treated vs untreated percent extracellular): resistant
Escherichia coli isolate
  susceptibility call: susceptible
